Experimental data taken from patent publication US9505735B2, “Compounds for treating infectious diseases” (Whitehead Institute for Biomedical Research, priority 2012, dated 2016).

Key:
[1] = test system: mammalian cells (293T, mouse embryo fibroblasts); test: Mammalian cell toxicity testing (Cell Titer-Glo); type: cell-based, human; details: 20 μM, 48 hours
Experimental: (B) Anti-fungal susceptibility testing for an evolutionarily diverse group of fungi treated with gepinacin. For A. terreus the MIC50 and MIC80 are plotted. (C) Anti-fungal susceptibility testing for wild type C. albicans and strains resistant to the three major classes of anti-fungals treated with gepinacin. (D) Mammalian cell toxicity testing for proliferating human cells in culture (293T) or quiescent cells (mouse embryo fibroblasts). Cells were treated with gepinacin (20 μM) for 48 hours after which relative viable cell number was measured by standard luciferase assay (Cell Titer-Glo®, Promega).

Aspergillus terreus = test: Antifungal susceptibility testing (mold, MIC50/MIC80); type: cell-based
Experimental: Sensitivity to gepinacin was determined in 96-well, flat bottom microtiter plates using a modification of the NCCLS broth microdilution protocol CLS M27-A3 and RPMI as culture medium. Fungi were inoculated at ˜10^3 cells per ml and incubated for 48 hours at 37° C. after which plates were sealed, shaken and the optical density read at 600 nm (OD600) on a Tecan Safire 2 plate reader. All samples were run in duplicate or triplicate and assays were repeated at least once. Results are expressed as fraction of growth in the absence of compound and the mean and standard deviation are plotted. For the mold A. terreus, inoculum was 10^4 cells per ml and plates were incubated at 35° C. for 48 hours in the dark. Plates were then visually scored as specified by CLSI document M38-A2 to determine the MIC50 and MIC80.

Gwt1 = biological target: T1, Gwt1 (Saccharomyces cerevisiae, UniProt P47026); test: In vitro acylation assay with yeast membranes; type: biochemical, S. cerevisiae
T1 construct: Wildtype S. cerevisiae BY4741; endogenous in cells; host or cells: S. cerevisiae BY4741 (wild type)
T1 sequence (P47026 1-490): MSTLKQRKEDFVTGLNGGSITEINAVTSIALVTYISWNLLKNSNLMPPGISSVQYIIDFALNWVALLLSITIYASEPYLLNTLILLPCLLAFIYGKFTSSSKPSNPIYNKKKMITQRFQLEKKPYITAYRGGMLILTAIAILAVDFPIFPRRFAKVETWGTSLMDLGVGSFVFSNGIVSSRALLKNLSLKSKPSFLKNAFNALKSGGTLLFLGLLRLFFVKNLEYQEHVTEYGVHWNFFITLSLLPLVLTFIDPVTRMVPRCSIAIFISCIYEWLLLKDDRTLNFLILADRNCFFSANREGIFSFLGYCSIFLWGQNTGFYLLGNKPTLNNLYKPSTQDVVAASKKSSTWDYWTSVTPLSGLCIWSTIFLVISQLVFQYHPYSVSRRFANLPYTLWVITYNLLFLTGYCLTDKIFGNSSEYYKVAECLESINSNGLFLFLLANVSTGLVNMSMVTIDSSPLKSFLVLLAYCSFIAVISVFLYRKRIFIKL
Experimental: Experiments were performed using a previously published protocol (Umemara, et al. (2003) J Biol Chem 278, 23639-23647) with the following modifications; UDP[^3H]GlcNAc was used instead of [^14C] and TLC plates were imaged by autoradiography. Lipid extracts were treated overnight with phosphatidylinositol-specific phospholipase C to confirm that the band identified as GlcN-(acyl)PI was resistant to cleavage (data not shown).
Production of GPI-anchors begins on the cytoplasmic surface of the ER but is completed on the luminal side. Gwt1 (in yeast) or PIG-W (mammalian) acts at the first step on the luminal side of the ER, the acylation of glucosamine phosphatidylinositol (GlcN-PI) (FIG. 2b) (Sagane, et al. (2011) J Biol Chem 286, 14649-14658; Murakami, et al. (2003) Mol Biol Cell 14, 4285-4295). To provide direct biochemical evidence that Gwt1 is the proximal protein target of gepinacin in vitro acylation reactions were performed using yeast membrane preparations. UDP[^3H]GlcNAc was incubated with the membranes, and the resulting lipid products were recovered by chemical extraction and fractionated by silica gel thin layer chromatography (TLC). The appearance of a phospholipase-C insensitive band indicated the production of the acylated product.

[2] = test system: RAW264.7 macrophages co-cultured with treated C. albicans; test: Macrophage stimulation and TNFα measurement (ELISA); type: cell-based, mouse; details: 2 hours co-culture
Experimental: Cultures of C. albicans Sc5314 cells were drug treated as described for β-glucan staining. After overnight incubation, cultures were washed extensively, counted, and added to cultures of the mouse macrophage cell line RAW264.7 at a macrophage:yeast ratio of 1:2.5 in the continued presence of drug. After 2 hours supernatants were harvested and TNFα concentration measured by ELISA using a kit according to manufacturer's instructions (DY410, R&D Systems).

[3] = test system: fluconazole-resistant C. albicans strains CaCi2, 8 and 17; test: Filamentation, liquid assay; type: cell-based; details: 5 μM
Experimental: For liquid assays, C. albicans strains were grown overnight in YPD with DMSO or 5 μM gepinacin. After dilution to an OD600 of 0.1 in Spider media, growth was continued for an additional 3 hours with agitation at 37° C. in the presence of compound before transfer to a 24 well plate for imaging (Shen, et al. (2008) Proc Natl Acad Sci USA 105, 20918-20923). Assays with S. cerevisiae strain Sigma 1278B on solid media were performed as previously described (Liu, et al. (1994) Science 266, 1723-1726) except gepinacin was added directly to partially cooled plate media and colonies were imaged after growth for 6 or 9 days at 30° C.
Because of its role in tissue invasion, a key determinant of fungal virulence is the ability to switch between yeast and filamentous forms (Shapiro, et al. (2011) Microbiol Mol Biol Rev 75, 213-267; Sudbery, (2011) Nat Rev Microbiol 9, 737-748; Noble, et al. (2010) Nat Genet 42, 590-598). A previous report has shown that mature GPI-anchors are required for this process (Richard, et al. (2002) Microbiology 148, 2125-2133). […] In the absence of gepinacin, all three drug-resistant clinical isolates underwent marked transformation to large macroscopic mats, readily visible to the eye. […]

SMILES: COc1ccc(NC(=O)COc2cccc(OCC(C)C)c2)cc1 [gepinacin]
- cytotoxicity for mammalian cells [1]: Lack of cytotoxicity
- growth inhibition (Aspergillus terreus): inhibited the growth
- acyltransferase activity, strain expressing the yeast gene (Gwt1; membranes of low copy plasmid strain): potently inhibited
- acylation of GlcN-PI (Gwt1; yeast membrane preparations, inactive analog at 10 μM): inhibited the acylation of GlcN-PI at low micromolar concentration
- TNFα secretion by macrophages [2]: more than doubled
- filamentation in Spider medium [3]: completely blocked
